According to paper PMC4834588 (British Journal of Clinical Pharmacology, 2016):
Read-outs that look alike come from different tables or passages of the source. Marks after values point to notes of the source that are not given here. Values belong to the molecule of their own block, whether it stands above or below them. Numbered stars: 1 amine (or outer) side, 2 acyl side, 3 side chain; on linkers, the order of the positions; unused ones are H or OH. Bridge positions count the residues as written; N and C are the ends. Square brackets hold non-standard residues; d marks the D form. Peptide text beside a SMILES is read from it. I, II: the chains in the order shown. Actinocin(9to1) = Cc1c2oc3c(C)ccc(C(=O)[*:1])c3nc-2c(C(=O)[*:2])c(N)c1=O; NMeV = CN[C@H](C(=O)O)C(C)C; Sar = CNCC(=O)O

Columns and labels:
[1] = Log P by HPLC retention on C18 column
Text: The method for the generation of Log P values by high performance liquid chromatography (HPLC) was adapted from that described by Zhao et al. 22. Briefly, Log P correlates with the retention time of a compound by a solid phase C18 column. […] By using compounds with known Log P values, a standard curve can be determined and the Log P of a compound of interest obtained by interpolation. A Waters HPLC system, linked to an Agilent fluorescence detector, was used along with a Luna 5 μ C18 50 × 2.0 mm HPLC column preceded by a guard column (Phenomenex, Macclesfield, UK). […] The sample holder for the HPLC was set at 25 °C in order to prevent freezing of the DMSO during the run. The mobile phase consisted of deionized water and acetonitrile with a constant gradient of 40–60%, respectively.
Prior to each run the column was equilibrated to the running conditions for 10 minutes, with the flow rate set to 0.5 ml min^−1. A 20‐μl aliquot of each sample was injected into the column and its retention time measured relative to that of the sodium nitrate peak. Peaks were analysed using Empower software (Waters, Wilmslow, UK).

[2] = cited from earlier work
[3] = parameters: method as in PMID 15143082; conditions: cited from earlier work
[4] = cited from earlier work; remark: listed apart in the source
[5] = parameters: method as in http://www.drugbank.ca/drugs/DB00970; conditions: PBPK compound file input; ref http://www.drugbank.ca/drugs/DB00970; cited from earlier work
[6] = PBPK modelling and simulation (Simcyp version 14 release 1); parameters: species or system human; conditions: PBPK compound file input; determined from chemical structure
Method: Modelling and simulation were performed using Simcyp version 14 release 1 (Simcyp Ltd, a Certara company, Sheffield, UK). The compound file for Act D was compiled using data generated in the methods described above and with additional inputs from web databases and literature sources as shown in Table 2. The Simcyp software provides a framework for assessing the PK of a drug by defining certain characteristics within a compound file. Using this compound file, pharmacokinetic data can then be simulated in individuals of a virtual population of interest, allowing for the impact of inter‐individual differences to be assessed 17, 18.
For the simulation of clinical trial data, information was taken from previous work by Hill et al., who studied 117 patients administered Act D intravenously 8. The population was split into three age categories: 1–<6 (n = 67), 6–<10 (n = 11) and 10–20 years (n = 39). These age bins were further subdivided based on the dose of Act D received (Table 1). […]
The Simcyp simulations output the mean and the 5th and 95th percentile for the concentration−time profile as well as the calculated mean, median and geometric mean of the simulated population. […] In addition, the mean fold‐prediction of AUC against observed data was determined; a two‐fold under‐ or over‐prediction was considered a reasonable prediction and within 1.5‐fold a good prediction. […]

[7] = Blood:plasma partitioning in whole blood from a healthy donor; type: in vitro ADME; conditions: human
Method: All experiments were performed in triplicate. An aliquot of 180 μl whole blood from a healthy donor was added to 20 μL of each Act D solution (final concentrations 0.4, 2 and 10 μg ml^−1) in Eppendorf tubes, followed by gentle rotation for 1 min before transfer to an incubator (Infors HT Multitron Standard, Infors AG, Basel) at 37 °C for 1 h and 40 μl of plasma was transferred to a new Eppendorf and mixed with 40 μl of fresh blood.
For the blood samples, 40 μl of blood was transferred to a new Eppendorf and mixed with 40 μl blank plasma. All samples were then mixed with 160 μl of the extraction solution and frozen at −80 °C for 1 h. Samples were then centrifuged at 2000 g and 4 °C for 1 h and 100 μl of supernatant from each sample was transferred to HPLC vials and stored at −20 °C overnight. LC–MS analysis was performed as described above for the analysis of transporter kinetic samples. The blood‐to‐plasma ratio was calculated from the following equation (where Kb/p is the whole blood‐to‐plasma partition coefficient, Ke/p is the red blood cell‐to‐plasma partition and H is the haematocrit): (1) Blood‐to‐plasmaKb/p=Ke/p×H+1−H

ABCB1 (MDR1) = ABCB1 (MDR1) (Homo sapiens, UniProt P08183); conditions: basal to apical, 0.1-100 μM Act D, 1 h, MDCKII-MDR1 minus MDCKII-WT
Chain of ABCB1 (MDR1) (P08183 whole entry): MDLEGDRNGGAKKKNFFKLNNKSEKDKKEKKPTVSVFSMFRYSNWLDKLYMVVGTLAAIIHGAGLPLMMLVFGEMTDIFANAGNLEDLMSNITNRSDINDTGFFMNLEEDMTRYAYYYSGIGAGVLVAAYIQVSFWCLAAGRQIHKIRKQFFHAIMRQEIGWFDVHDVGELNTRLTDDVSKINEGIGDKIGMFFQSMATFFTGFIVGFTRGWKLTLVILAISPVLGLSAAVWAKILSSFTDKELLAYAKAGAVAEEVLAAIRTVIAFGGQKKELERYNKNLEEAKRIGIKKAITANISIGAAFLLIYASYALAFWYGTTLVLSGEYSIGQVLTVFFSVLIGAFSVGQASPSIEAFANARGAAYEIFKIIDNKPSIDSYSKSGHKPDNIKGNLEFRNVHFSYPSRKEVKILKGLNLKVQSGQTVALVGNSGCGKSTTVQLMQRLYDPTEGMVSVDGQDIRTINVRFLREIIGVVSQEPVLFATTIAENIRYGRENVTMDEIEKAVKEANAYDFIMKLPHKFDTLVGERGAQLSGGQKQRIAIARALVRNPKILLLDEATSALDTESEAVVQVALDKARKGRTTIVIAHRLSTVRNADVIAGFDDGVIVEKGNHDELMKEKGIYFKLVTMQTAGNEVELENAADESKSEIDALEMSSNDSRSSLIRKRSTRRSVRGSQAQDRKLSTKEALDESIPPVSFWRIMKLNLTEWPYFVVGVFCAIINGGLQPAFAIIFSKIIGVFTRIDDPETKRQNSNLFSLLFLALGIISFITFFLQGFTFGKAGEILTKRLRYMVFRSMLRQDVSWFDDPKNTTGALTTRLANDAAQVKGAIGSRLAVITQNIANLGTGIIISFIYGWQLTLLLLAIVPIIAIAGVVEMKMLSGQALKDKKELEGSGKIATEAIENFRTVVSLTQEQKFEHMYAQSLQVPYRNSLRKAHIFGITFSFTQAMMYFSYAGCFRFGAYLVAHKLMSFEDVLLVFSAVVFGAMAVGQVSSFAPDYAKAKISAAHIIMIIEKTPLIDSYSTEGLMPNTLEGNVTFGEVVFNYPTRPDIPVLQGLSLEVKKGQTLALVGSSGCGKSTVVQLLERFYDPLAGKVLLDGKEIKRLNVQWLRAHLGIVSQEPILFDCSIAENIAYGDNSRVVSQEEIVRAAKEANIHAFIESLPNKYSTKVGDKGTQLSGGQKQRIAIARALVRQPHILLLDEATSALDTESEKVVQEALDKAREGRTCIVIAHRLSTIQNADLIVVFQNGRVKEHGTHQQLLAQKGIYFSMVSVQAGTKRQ
Method: Polarized Madin‐Darby canine kidney (MDCKII) cell line wild‐type and cells transfected with ABCB1 (MDR1) were obtained from Dr. A.H. Schinkel (Amsterdam, the Netherlands).
For drug transport experiments, 12‐mm Corning Transwell polycarbonate membrane cell culture inserts with 0.4‐μm pores were used (Sigma Aldrich, UK). Cells (passage 8–12) were seeded at 1.4 × 10^4 cells ml^−1 in growth medium and grown on filter for 5 days before the experiment was performed, with medium being changed every 24 hours. […] Growth medium was aspirated from both the apical and basal compartments, and the cells were washed twice with pre‐warmed phosphate‐buffered saline adjusted to pH 7.4. […] Lucifer yellow (60 μM) was added as a paracellular control to test for the formation of a fully confluent monolayer. A limit of 2% Lucifer yellow movement was set as the cutoff with the results for any wells exceeding that threshold being rejected.
The rate of efflux (μM min^−1/10^6 cells) due to MDR1 was determined by subtracting the rate of flux seen across the MDCKII‐WT cells from the flux across the MDCKII‐MDR1 cells.

chromatographic logP ([1]; reversed-phase C18 HPLC column (Luna 5 µ C18 50 × 2.0 mm)): 1.8
SMILES: C[C@@H]1C[C@H]2[C@@H]3CCC4=CC(=O)C=C[C@]4(C)[C@@]3(F)[C@@H](O)C[C@]2(C)[C@@]1(O)C(=O)CO [Dexamethasone]

SMILES: Cc1c2oc3c(C)ccc(C(=O)N[C@@H]4C(=O)N[C@H](C(C)C)C(=O)N5CCC[C@H]5C(=O)N(C)CC(=O)N(C)[C@@H](C(C)C)C(=O)O[C@@H]4C)c3nc-2c(C(=O)N[C@@H]2C(=O)N[C@H](C(C)C)C(=O)N3CCC[C@H]3C(=O)N(C)CC(=O)N(C)[C@@H](C(C)C)C(=O)O[C@@H]2C)c(N)c1=O [Act D, Actinomycin D] (I: T[dV]P[Sar][NMeV] / II: T[dV]P[Sar][NMeV]; ester I:1-I:C, II:1-II:C; linker I:N-II:N via Actinocin(9to1))
Mean observed AUC ± SD (AUC0-26h) ([2]; age 1–<6 years, dose 0.60 mg m^−2 IV): 82 ± 18 ng·h/mL
Mean observed AUC ± SD (AUC0-26h) ([2]; age 1–<6 years, dose 0.76 mg m^−2 IV): 63 ± 8 ng·h/mL
Mean observed AUC ± SD (AUC0-26h) ([2]; age 1–<6 years, dose 1.01 mg m^−2 IV): 71 ± 33 ng·h/mL
Mean observed AUC ± SD (AUC0-26h) ([2]; age 1–<6 years, dose 1.12 mg m^−2 IV): 82 ± 16 ng·h/mL
Mean observed AUC ± SD (AUC0-26h) ([2]; age 1–<6 years, dose 1.48 mg m^−2 IV): 111 ± 16 ng·h/mL
Mean observed AUC ± SD (AUC0-26h) ([2]; age 1–<6 years, dose 1.55 mg m^−2 IV): 128 ± 51 ng·h/mL
Mean observed AUC ± SD (AUC0-26h) ([2]; age 6–<10 years, dose 0.77 mg m^−2 IV): 80 ± 28 ng·h/mL
Mean observed AUC ± SD (AUC0-26h) ([2]; age 6–<10 years, dose 1.50 mg m^−2 IV): 130 ± 12 ng·h/mL
Mean observed AUC ± SD (AUC0-26h) ([2]; age 10–20 years, dose 0.74 mg m^−2 IV): 45 ± 8 ng·h/mL
Mean observed AUC ± SD (AUC0-26h) ([2]; age 10–20 years, dose 1.04 mg m^−2 IV): 50 ± 12 ng·h/mL
Mean observed AUC ± SD (AUC0-26h) ([2]; age 10–20 years, dose 1.48 mg m^−2 IV): 120 ± 44 ng·h/mL
Mean AUC0-26h observed ([2]; observed in patients (abstract)): 93 ng·h/mL
Likelihood of developing SOS ([3]; patients over three years of age): 4%
Chance of developing SOS ([3]; patients under three years of age): 15%
CL Renal ([4]; PBPK input, CV of 60% used, ref Tattersall et al. 5): 1.8 (l h^−1) ^*
Administered dose eliminated in the urine and faeces ([4]; after nine days): approximately 35%
Fraction unbound [5]: 0.95
Compound type [6]: Neutral
blood plasma ratio at 1 h ([7]; 37 °C, 1 h, 95% confidence interval 0.03, read-out: Mean blood-to-plasma ratio): 0.62
blood plasma ratio at 1 h ([7]; whole blood spiked with 0.2 to 10 μg ml^−1, read-out: Blood-to-plasma ratios (range observed)): 0.59 to 0.65
Maximum rate of flux (J max) (ABCB1 (MDR1)): 1142 μM min^−1/10^6 cells
Michaelis–Menten constant (K m) (ABCB1 (MDR1)): 20 µM
Experimental Log P [1]: 4.77
chromatographic logP [1]: 4.47
